In ChEMBL document CHEMBL4028802, “DILIrank: the largest reference drug list ranked by the risk for developing drug-induced liver injury in humans” (Drug Discov Today, 2016) one finds DILI_Concern and DILI_severity_class data, which are given here for 20 molecules.

For data set [1], the species on record is Homo sapiens. Nature of the data set: Liver toxicity in human assessed as induction of drug-induced liver injury by measuring verified drug-induced liver injury concern status.
The species named for data set [2] is Homo sapiens. Nature of the data set: Liver toxicity in human assessed as induction of drug-induced liver injury by measuring severity class index.
For DILI severity class in this document: key of the grades not given here.

For the molecule `C[C@@H](O)[C@H]1C(=O)N2C(C(=O)O)=C(S[C@@H]3CN[C@H](CNS(N)(=O)=O)C3)[C@H](C)[C@H]12` [DORIPENEM], in the data set filed under Homo sapiens [1], the DILI_Concern result is “Ambiguous-Dili-Concern”. Besides, the DILI_severity_class in the data set listed under Homo sapiens [2] is on record as 3.
Take `O=C([O-])O.[Na+]` [SODIUM BICARBONATE]: the DILI_Concern entry in the data set listed under Homo sapiens [1] is listed as “No-Dili-Concern”. Moreover, the DILI_severity_class in the data set filed under Homo sapiens [2] was 0.
As for `O=C(CCCN1CCC(O)(c2ccc(Cl)cc2)CC1)c1ccc(F)cc1` [HALOPERIDOL], the DILI_Concern entry in the data set listed under Homo sapiens [1] is on record as “Less-Dili-Concern”. Also, the DILI_severity_class in the data set listed under Homo sapiens [2] is 5.
Regarding `C=CC1=C(C(=O)O)N2C(=O)[C@@H](NC(=O)/C(=N\O)c3csc(N)n3)[C@H]2SC1`, the DILI_Concern entry in the data set listed under Homo sapiens [1] was “Less-Dili-Concern”. For the same molecule, the DILI_severity_class in the data set filed under Homo sapiens [2] was 7.
In the same order, the values of `COC(=O)[C@@H]1CC2=CC(=O)CC[C@]2(C)[C@@]23O[C@@H]2C[C@@]2(C)[C@@H](CC[C@@]24CCC(=O)O4)[C@H]13` [EPLERENONE] are “Ambiguous-Dili-Concern” and 4.
Regarding `O=C(O)Cc1ccccc1Nc1c(Cl)cccc1Cl` [DICLOFENAC], the DILI_Concern entry in the data set filed under Homo sapiens [1] is “Most-Dili-Concern”. Further, the DILI_severity_class in the data set filed under Homo sapiens [2] amounted to 8.
In the same order, the values of `CN(C)c1nc(N(C)C)nc(N(C)C)n1` [ALTRETAMINE] are “Ambiguous-Dili-Concern” and 2.
Take `FC(F)(F)C(F)(F)C(F)(F)F`: the DILI_Concern entry in the data set filed under Homo sapiens [1] is “No-Dili-Concern”. In addition, in the data set filed under Homo sapiens [2], the DILI_severity_class was 0.
`C[C@H](CCC(=O)O)[C@H]1CC[C@H]2[C@@H]3[C@@H](O)C[C@@H]4C[C@H](O)CC[C@]4(C)[C@H]3CC[C@]12C` [URSODIOL]: in the data set listed under Homo sapiens [1], the DILI_Concern result is given as “Ambiguous-Dili-Concern”. Further, in the data set filed under Homo sapiens [2], the DILI_severity_class came to 0.
For `COc1cc([C@@H]2c3cc4c(cc3[C@@H](O[C@@H]3O[C@@H]5CO[C@@H](c6cccs6)O[C@H]5[C@H](O)[C@H]3O)[C@H]3COC(=O)[C@H]23)OCO4)cc(OC)c1O` [TENIPOSIDE], the DILI_Concern result in the data set filed under Homo sapiens [1] was “Less-Dili-Concern”. In the data set filed under Homo sapiens [2], the DILI_severity_class was determined as 3.
With `CNCCCC12CCC(c3ccccc31)c1ccccc12` [MAPROTILINE], the DILI_Concern result in the data set filed under Homo sapiens [1] is “Ambiguous-Dili-Concern”. Also, the DILI_severity_class in the data set filed under Homo sapiens [2] amounted to 5.
The matching figures for `CCO[C@@H]1OC(=O)C[C@@H]1NC(=O)[C@@H]1CCCN2C(=O)CC[C@H](NC(=O)c3nccc4ccccc34)C(=O)N12`: “Most-Dili-Concern” and 8.
`Cc1cccc(Nc2ccncc2S(=O)(=O)NC(=O)NC(C)C)c1` [TORSEMIDE]: the DILI_Concern entry in the data set listed under Homo sapiens [1] is reported as “Ambiguous-Dili-Concern”. Also, the DILI_severity_class in the data set listed under Homo sapiens [2] is given as 2.
On to `CCc1oc2ccccc2c1C(=O)c1ccc(O)cc1` [BENZARONE], for which the DILI_Concern entry in the data set listed under Homo sapiens [1] is listed as “Most-Dili-Concern”. Further, the DILI_severity_class in the data set listed under Homo sapiens [2] came out at 8.
Take `S=P(N1CC1)(N1CC1)N1CC1` [THIOTEPA]: the DILI_Concern entry in the data set filed under Homo sapiens [1] was “Less-Dili-Concern”. Further, the DILI_severity_class in the data set listed under Homo sapiens [2] came to 3.
The matching figures for `CC1(C)S[C@@H]2[C@H](NC(=O)[C@H](N)c3ccccc3)C(=O)N2[C@H]1C(=O)O` [AMPICILLIN]: “Less-Dili-Concern” and 3.
`CNC(=C[N+](=O)[O-])NCCSCc1ccc(CN(C)C)o1` [RANITIDINE]: the DILI_Concern result in the data set filed under Homo sapiens [1] is given as “Less-Dili-Concern”. Further, the DILI_severity_class in the data set filed under Homo sapiens [2] was found to be 5.
The matching figures for `Cn1cnc([N+](=O)[O-])c1Sc1ncnc2nc[nH]c12` [AZATHIOPRINE]: “Most-Dili-Concern” and 5.
As for `O[C@@H](c1cc(C(F)(F)F)nc2c(C(F)(F)F)cccc12)[C@H]1CCCCN1` [(S,R)-MEFLOQUINE], the DILI_Concern result in the data set listed under Homo sapiens [1] is given as “Less-Dili-Concern”. For the same molecule, the DILI_severity_class in the data set filed under Homo sapiens [2] was 7.
In the case of `CN(C)CCc1c[nH]c2ccc(CS(=O)(=O)N3CCCC3)cc12` [ALMOTRIPTAN], the DILI_Concern entry in the data set listed under Homo sapiens [1] is given as “No-Dili-Concern”. In the data set filed under Homo sapiens [2], the DILI_severity_class came to 0.
